The numbers were not newly measured in patent publication US20250152701A1, “NKT CELL LIGAND-CONTAINING LIPOSOME COMPOSITION” (RIKEN, priority 2022, published 2025), which cites them from elsewhere.

The conditions of the data set: Non Patent Literature 6.

Consider `CCCCCCCCCCCCCCCCCCCCCCCCCC(=O)N[C@@H](CO[C@H]1OC(CO)[C@H](O)C(O)C1O)[C@H](O)[C@H](O)CCCCCCCCCCCCCC` (stereo partly shown) [KRN7000], for which the anti-tumor activity entry is “extremely strong anti-tumor activity”.
